Series [1] can be described thus: Weight loss after P. aeruginosa lung infection. Type of series: in vivo, mice. The note with it: for Mean weight loss (% of initial weight): mean ± SEM. How it is done:
(§1) Fenretinide Diet Supplementation. Examples 2 to 6: fenretinide (Sigma-Aldrich, Oakville, ON) powder was resuspended in 95% ethanol and subsequently incorporated in the Peptamen liquid diet. It was protected from light and kept at 4° C. before being given to the mice (5 mg/kg per day per mouse). Mock-treated diets were prepared similarly by adding ethanol to the Peptamen diet but omitting the fenretinide supplementation. The diet was given every morning for 28 consecutive days with specific monitoring of the quantity consumed by the mice in each cage. Examples 7 to 12: fenretinide powder was kindly provided by Dr. Robert Smith (NIH; Bethesda, Md., USA). Fenretinide was resuspended in 95% ethanol to make a 2 μg/μL concentration. Approximately 40 μL of this preparation was incorporated into the Peptamen liquid diet (5 mg/kg per day per mouse). The prepared food containing fenretinide was then stored in the dark at 4° C. for no more than 3 hours prior to being administered to the mice. To ensure that the entire drug dose was consumed, the mice were given 10 mL of fenretinide-treated Peptamen, which represents ⅔ of the daily mouse food consumption, in the late afternoon. The remaining 5 mL of Peptamen (without fenretinide) was given the following morning. Mice were treated twice a week for 4 weeks. During the treatment period each mouse was kept in a separate cage (including WT mice) and was monitored to ensure that the entire amount of Peptamen containing the fenretinide or with out was consumed. The diet for the mock-treated control group was prepared and administered similarly to that described above, by adding the same volume of ethanol to the Peptamen diet but omitting the fenretinide supplementation.
Mouse Lung Infection. Mice were anaesthetized with a combination of ketamine (7.5 mg/mL) and xylazine (0.5 mg/mL) administered intraperitoneally at a dose of 20 mL/kg of body weight. Once the mouse was successfully anaesthetized, the animal was installed under binoculars (Microscope M650, Wild Leitz, Willowdale, ON) in the vertical position and held on a restraining board by holding the animal by its upper incisor teeth (Guilbault, et al. (2005) supra). The tongue was then gently pulled to the side of the mouth and a 26-G gavage needle was inserted into the mouth and guided through the pharynx gently touching the vocal cords to see the lumen of the trachea; the needle was then introduced into the trachea to reach the lung for the bilateral injection of the 50 microliter inoculum. After inoculation, the animal regained righting reflex within an hour. A final dose of 1×10^6 P. aeruginosa was used for infection using wild-type and Cftr-KO mice. Mice were monitored 3 times daily; the maximum weight loss allowed was 15%. Mice were sacrificed by CO2 overdose.

For a further series, the system named is DHA and AA levels. The experiment in a line: Fatty acid analysis (DHA, AA, DHA/AA ratio) in lungs and plasma, 28 daily treatments. Type of series: in vivo, mice. How it is done: as §1
Fatty Acid Analysis. Minced tissues isolated from mice were immersed in 1 mM BHA in chloroform and methanol (2:1 vol). For plasma samples (mouse and human), 100 μL of plasma was added to 1 mL of BHA. Lipids were then extracted from all samples according to standard methods (Folch, et al. (1957) J. Biol. Chem. 226:497-509). Identification of phospholipids was carried out by thin-layer chromatography extraction (Van Handel & Zilversmit (1957) J. Lab. Clin. Med. 50:152-157). Also, fractionated lipids were dried and resuspended in heptane:methanol:sulfuric acid (5:1:1) for free fatty acid extraction. Diazomethane was used to esterify the fatty acids released and the esters were identified by GC/MS (Hewlett Packard 5880A, WCOT capillary column (Supelco-10, 35 m×0.5 mm, 1 μm thick)) using commercial standards (Sigma-Aldrich).

For series [2], the system named is osteoblasts and osteoclasts. The experiment in a line: Osteoblast and osteoclast counts in femur (H&E, TRAP). Type of series: in vivo, mice. How it is done:
as §1, with “The remaining 5 mL of Peptamen (without fenretinide) was given the following morning. Mice were treated twice a week for 4 weeks.” left out, “The diet for the mock-treated control group was prepared and administered similarly to that described above, by adding the same volume of ethanol to the Peptamen diet but omitting the fenretinide supplementation.” left out

In the next series the test system is ceramide levels. In words: Plasma ceramide levels, biweekly treatment for 4 weeks. Type of series: in vivo. The note with it: Cftr-KO mice, 4 weeks of biweekly treatment, p<0.05. How it is done:
Fenretinide Diet Supplementation. Examples 2 to 6: fenretinide (Sigma-Aldrich, Oakville, ON) powder was resuspended in 95% ethanol and subsequently incorporated in the Peptamen liquid diet. It was protected from light and kept at 4° C. before being given to the mice (5 mg/kg per day per mouse). Mock-treated diets were prepared similarly by adding ethanol to the Peptamen diet but omitting the fenretinide supplementation. The diet was given every morning for 28 consecutive days with specific monitoring of the quantity consumed by the mice in each cage. Examples 7 to 12: fenretinide powder was kindly provided by Dr. Robert Smith (NIH; Bethesda, Md., USA). Fenretinide was resuspended in 95% ethanol to make a 2 μg/μL concentration. Approximately 40 μL of this preparation was incorporated into the Peptamen liquid diet (5 mg/kg per day per mouse). […] During the treatment period each mouse was kept in a separate cage (including WT mice) and was monitored to ensure that the entire amount of Peptamen containing the fenretinide or with out was consumed. […]
Ceramide/Sphingolipids analysis. The concentration of ceramide in the (lung, liver, ileum, pancreas homogenates) and plasma from mice and humans were determined by ELISA^39;40 on separated lipids samples by thin layer chromatography, as described above. […]

For series [3] the following is noted: cited from earlier work.
Where [4] appears, read: fenretinide-treated Cftr-KO infected mice, lungs and plasma.
[5] abbreviates: wild-type mice, lungs and plasma.

Turning to `CC1=C(/C=C/C(C)=C/C=C/C(C)=C/C(=O)Nc2ccc(O)cc2)C(C)(C)CCC1` [fenretinide, all-trans-N-(4-hydroxyphenyl) retinamide], the “Mean weight loss (% of initial weight)” value in series [1] (Cftr-KO mice, day 1 post-infection) is −4.0 ± 1.1 % of initial weight; in series [1] (Cftr-KO mice, day 2 post-infection) it was −12.9 ± 0.9 % of initial weight; in series [1] (Cftr-KO mice, day 3 post-infection), −15.3 ± 1.8 % of initial weight; in series [1] (Wild-type mice, day 1 post-infection), −4.8 ± 0.4 % of initial weight; in series [1] (Wild-type mice, day 2 post-infection), −9.9 ± 0.5 % of initial weight; in series [1] (Wild-type mice, day 3 post-infection), −11.1 ± 1.2 % of initial weight. Moreover, the “Effect on mean weight loss, fenretinide-treated vs mock-treated” value in series [1] (day 1 to day 3 post-infection) is “no significant difference”. In the series with DHA and AA levels (Cftr-KO mice), the “AA levels in the ileum, liver and pancreas” value is on record as “decrease”. Also, in the series with DHA and AA levels (FEN-treated mice (untreated = 67-fold)), the “Difference in median DHA/AA index ratio, wild-type/Cftr-KO” value amounted to 7 fold. Moreover, the “Lowering of the difference in median DHA/AA index ratio between wild-type and Cftr-KO” value with DHA and AA levels (FEN-treated vs untreated) is “approximately 10 fold”. For the same molecule, the “AA levels, median vs infected Cftr-KO untreated controls” value with DHA and AA levels (setting [4]) is given as “lower median”. Further, in the series with DHA and AA levels (setting [4]), the “Concentration of DHA incorporated in phospholipids, median vs wild-type infected controls” value is “lower median”. The “Free DHA concentration, median vs wild-type infected controls” value in the series on DHA and AA levels (fenretinide-treated Cftr-KO infected mice, plasma) is on record as “higher median”. In addition, the “Free DHA (percentile), median vs wild-type untreated uninfected controls” value in the series with DHA and AA levels (fenretinide-treated infected wild-type mice, lungs and plasma) is “significant difference”. In addition, the “DHA incorporated in phospholipids (percentile of total fatty acids), median vs untreated Cftr-KO” value with DHA and AA levels (infected Cftr-KO mice, lungs and plasma) was “no difference”. Further, in the series on DHA and AA levels (infected Cftr-KO mice, lungs and plasma (significant only in lungs)), the “DHA/AA median index ratio vs untreated Cftr-KO” value was “increase”. In addition, the “DHA incorporated in phospholipids (percentile of total fatty acids), median vs untreated wild-type” value in the series on DHA and AA levels (setting [5]) is recorded as “no difference”. Besides, in the series on DHA and AA levels (setting [5]), the “DHA/AA median index ratio vs untreated wild-type” value was “no effect”. Moreover, in series [2] (Cftr-KO and WT mice), the “Number of osteoclasts, treated vs untreated” value was “No significant difference”. Moreover, the “Amount of osteoblasts vs untreated Cftr-KO” value in series [2] (Cftr-KO mice, p<0.05) is on record as “increase”. Moreover, in the series with ceramide levels, the “Ceramide levels, increase vs untreated Cftr-KO” value worked out at 5.9 fold. For the same molecule, the “Generalized vascular damage in humans” value in series [3] (clinical trials (Reynolds and Lemons 2001)) was “does not induce generalized vascular damage”. In series [3] (neuroblastoma subjects 2-21 years (Garaventa 2003)), the “Reversibility of side effects following discontinuation of the treatment” value was not above 7 days. For the same molecule, the “Subjects in whom side effects occurred” value in series [3] (neuroblastoma subjects 2-21 years, oral once a day in 28-day courses (Garaventa 2003)) is recorded as 15 of the 45.

These data come from patent publication US8680153B2, “Method for correcting a lipid imbalance in a subject” (The Royal Institution for the Advancement of …, priority 2005, dated 2014).
